These results are taken from US20040204596A1, “Method for the preparation of unsaturated hydroxy fatty acids and their esters, their use in pharmaceutical and/or cosmetic preparations” (Pierre Potier, priority 2001, published 2004).

“And” between values parts separate entries of the source, which are not always exact repeats. Equal values may be shown once.

Assay [1] has as its system cutaneous 5-alpha-reductase. The experiment in a line: Inhibition of cutaneous 5-alpha-reductase activity. The format is biochemical. The source says:
DHA is capable of inhibiting cutaneous 5-alpha-reductase, the enzyme responsible for the production of di-hydro-testosterone. Treatment with 0.1% of DHA and treatment with 0.5% of DHA reduced by about 70% and about 90%, respectively, the 5-alpha-reductase activity compared to an untreated control. This inhibition results in a considerable reduction of the sebum level.

Assay [2] relates to collagenase. As to the kind of experiment: Anticollagenase activity on frozen sections of human skin (picrosirius staining). Further details: key to Alteration of the collagen structure: 0: An absence of alteration of the collagen structure; 1: somewhat; 2: markedly to very strongly altered collagen structure. The format is biochemical. The conditions noted are these: for Alteration of the collagen structure: frozen human skin sections, 2 hours at 37° C.; for inhibition of the activity of collagenase: collagenase 30 U/ml. On the procedure:
This example was performed with different solutions at concentrations of 1 and 2% of active principles in comparison with the excipient alone, buffer controls and collagenase. The active principles used were DHA, the 2-dimethylamino ethyl ester of trans-10-hydroxy-2-decenoic acid (ML40) and the glycerol ester of trans-10-hydroxy-2-decenoic acid (GM).
Frozen 5-μm-thick sections from a mammary plasty of a person were placed on histological slides (4 sections per slide). Each solution was tested on one slide.
The sections were covered with the solutions to be tested then incubated for 2 hours at 37° C. in a humid chamber. The solutions were eliminated by repeated rinsings and the sections were stained with picrosirius. Microscopic examination was performed with the 2.5 objective and paper photographs were taken with Kodak Gold 100 ASA film.
Table 2 summarizes the results of alteration of the collagen structure as a function of the tested solution. An absence of alteration of the collagen structure is indicated by 0 while a somewhat or markedly to very strongly altered collagen structure is indicated, respectively, by 1 or 2.

Assay [3] deals with adipose tissue explants. As to the kind of experiment: Lipolytic activity on adipose tissue explants ex vivo (lipids released in culture medium, TLC; histology). The format is cell-based. On the procedure: DHA was incorporated in the culture medium at a final concentration of 0.25 and 0.5%. After 8 days of contact, the activity was evaluated by quantitative determination of the lipids distributed in the culture medium.
Twelve adipose tissue explants (plasty P202-AB31) were prepared and placed in survival state in BEM medium (BIO-EC's Explants Medium). The explants were distributed in 4 lots of 3 explants:
one positive control lot (caffeine at 0.1%),
two product lots (DHA at 0.25 and 0.5%).
On Day 0, the explants were placed in survival state in 2 ml of culture medium, in which the product to be tested was incorporated.
This treatment was renewed on Day 2, Day 4 and Day 6.
On Day 2, Day 4, Day 6 and Day 8, the culture medium was collected. For each explant, the media collected on Day 2, Day 4, Day 6 and Day 8 were grouped together in the same tube and preserved at −20° C. for quantitative determination of the lipids.
On Day 8, the adipose tissue explants were collected and fixed in ordinary Bouin's fixative for the histological study.
The fixed adipose tissue explants were dehydrated, impregnated with paraffin, but in block form, sectioned and stained with Masson's trichrome.
After extraction of the culture medium, the lipids were separated and quantitatively determined by TLC.
The viability and morphology of the adipocytes was monitored by the histologic study.
The lipolytic activity was evaluated by analysis of the proportions of monoglycerides, diglycerides, triglycerides and free fatty acids.
The results are expressed in mass (μg) of each category of lipid released in the culture medium during the 8 days of treatment.
Table 5 below represents the statistical analysis using Student's test of the results of the quantitative determination of the fatty acids released in the culture medium during the 8 days of treatment.

In assay [4] the test system is collagenase. The experiment in a line: Anticollagenase activity on human skin explants maintained in survival state. The class given is cell-based. How it is done: The study was performed on a 5% GM product in comparison with the excipient (hydrocerin), a positive control and a control in the presence of collagenase at 100 U/ml.
Hydrocerin was used as the excipient for the preparation of the product to be applied. This study was performed twice. […] In the second study, the study time was extended and the collection of the explants was performed on Day 2 and on Day 4.
Human skin explants prepared and distributed into 16 lots of three explants each were placed in survival state according to Table 3.
The product was applied on Day 0 and on Day 2 at the rate of 20 mg per explant and collagenase was incorporated into the culture medium of the […].
Three explants of each lot were collected on Day 2 and on Day 4, fixed in ordinary Bouin's fixative and subjected to histological processing.
The histological study comprised:
impregnation in paraffin,
staining with Sirius red F3B,
calorimetric measurements of the collagen by image analysis,
comparison with photographs.
For this reason, the survival, the contact and the application were extended to Day 4. The collagenase action was monitored in two ways: intensity of the coloration of the collagen network and thickness of the dermal structure. With this study, penetration of the active principle and its inhibitory activity were correlated in relation to collagenase.

[5] abbreviates: 1% active principle + collagenase 30 U/ml.
The mark [6] stands for this setting: 1% active principle, no collagenase.
[7] abbreviates: 2% active principle + collagenase 30 U/ml.
The mark [8] stands for this setting: 2% active principle, no collagenase.
Setting [9] is: DHA at 0.25%, 8 days of treatment.
Setting [10] is: DHA at 0.5%, 8 days of treatment.
Where [11] appears, read: caffeine 0.1%, 8 days of treatment.
The mark [12] stands for this setting: product containing 5% of GM in hydrocerin, 20 mg per explant on Day 0 and Day 2, collagenase 100 U/ml, Day 4.

For `O=C(O)/C=C/CCCCCCCO` [DHA, trans-10-hydroxy-2-decenoic acid], the “reduction of 5-alpha-reductase activity compared to an untreated control” value was “about 70%” in assay [1] (treatment with 0.1% of DHA) and “about 90%” in assay [1] (treatment with 0.5% of DHA). Also, the “Alteration of the collagen structure” value in assay [2] (setting [5]), in assay [2] (setting [6]), in assay [2] (setting [7]) and in assay [2] (setting [8]) was 0 in each case. Besides, the “inhibition of the activity of collagenase” value (from here on “inhibition”) in assay [2] (1%) and in assay [2] (2%) was “inhibited completely” each time. Moreover, the “lipolytic activity (Student's test)” value in assay [3] (DHA applied at 0.25%) and in assay [3] (DHA applied at 0.5%) was “significant lipolytic activity” in each case. The “% augmentation/Control of fatty acids released” value (“% augmentation/Control” for short) was 1075% and 1075.6% in assay [3] (setting [9]); 1087% and 1086.8% in assay [3] (setting [10]). The “Diglycerides released in the culture medium, Mean” value in assay [3] (setting [9]) and in assay [3] (setting [10]) was 0.00 µg each time. Further, the figures for the “Fatty acids released in the culture medium, Mean” value in assay [3] (setting [9]) and in assay [3] (setting [10]) were 11.42 µg and 11.53 µg, respectively. Besides, the figures for the “Monoglycerides released in the culture medium, Mean” value in assay [3] (setting [9]) and in assay [3] (setting [10]) were 3.64 µg and 7.06 µg, respectively. The “Triglycerides released in the culture medium, Mean” value in assay [3] (setting [9]) is 156.15 µg; in assay [3] (setting [10]) it was 202.56 µg. Also, the “fatty acids released in the culture medium, individual explants” value was 9.95 µg and 11.67 µg and 12.66 µg in assay [3] (setting [9]); 12.81 µg and 11.64 µg and 10.14 µg in assay [3] (setting [10]). In addition, the “maximum effective dose (lipolytic effect)” value in assay [3] (adipose tissue explants, 8 days) was ~0.25%.
For the compound `Cn1c(=O)c2c(ncn2C)n(C)c1=O` [Caffeine, caffeine, reference compound], in assay [3] (setting [11]), the “% augmentation/Control” value was determined as 2780.6%; the “Diglycerides released in the culture medium, Mean” value was 0.02 µg; the “Fatty acids released in the culture medium, Mean” value was 27.99 µg; the “Monoglycerides released in the culture medium, Mean” value turned out to be 1.22 µg. Moreover, in assay [3] (setting [11]), the “Triglycerides released in the culture medium, Mean” value was 197.34 µg; the “fatty acids released in the culture medium, individual explants” value was 33.89 µg and 24.10 µg and 25.97 µg. Moreover, the “% augmentation/Control” value in assay [3] (caffeine 0.1%, 8 days of treatment, listed as caffeine) is on record as 2780%. The “augmentation factor of fatty acids released compared to the untreated control” value in assay [3] (caffeine at 0.1%, 8 days of treatment) was “about 29”.
As for `CN(C)CCOC(=O)/C=C/CCCCCCCO` [ML40, 2-dimethylamino ethyl ester of trans-10-hydroxy-2-decenoic acid], the “Alteration of the collagen structure” value in assay [2] (setting [5]) was found to be 2; in assay [2] (setting [6]), 0; in assay [2] (setting [7]) it was 1; in assay [2] (setting [8]), 0. The “inhibition” value in assay [2] (2%) was “only slightly inhibited”.
With `c1cnc2c(c1)ccc1cccnc12` [phenanthroline, reference compound], the dermal structure result in assay [4] (positive control + collagenase 100 U/ml, Day 4) is given as “the same as that of the controls without collagenase”.
As to `O=C(/C=C/CCCCCCCO)OCC(O)CO` (stereo not drawn) [GM, glycerol ester of trans-10-hydroxy-2-decenoic acid], the “Alteration of the collagen structure” value in assay [2] (setting [5]) is on record as 2; in assay [2] (setting [6]), 0; in assay [2] (setting [7]) it was 1; in assay [2] (setting [8]), 0. Moreover, the “inhibition” value in assay [2] (2%) was “only slightly inhibited”. The anticollagenase activity result in assay [4] (5% GM product, human skin explants, collagenase 100 U/ml) is reported as “pronounced anticollagenase activity”. In assay [4] (setting [12]), the “degradation of the collagen bundles” value is “very slightly degraded”. Moreover, in assay [4] (setting [12]), the “thickness of the dermis” value is given as “diminished slightly”.
